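Following 48 hours of exposure in 96-well plates, responses at five concentrations were used to interpolate endpoints linearly. GI50: concentration for 50% inhibition of growth.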 Calls of active or inactive are those of the source. No stated cut-off is given here; in the data, active = GI50 up to about 1.1 µM and inactive = higher. Starred links: 1 amine or outer side, 2 acyl side, 3 side chain; linkers in the order of their positions; H or OH if unused. Non-standard residues stand in square brackets, D forms with d. Residues, ends and D or L forms follow the SMILES beside them. *: point of attachment. X47 = CCC(=O)CC1CC(C)CC(C(=O)[*:2])N1[*:1]; X46 = CCCCCCCCC(C)C(=O)*; Aib = CC(C)(N)C(=O)O; X48 = CC(CN(C)CCO)N*
Assays:
Assay in all cases: inhibition of tumour cell growth, NCI panel, 48 h
LOX IMVI = tested on: LOX IMVI
IGROV-1 = tested on: IGROV-1
HT-29 = tested on: HT-29
HL-60 = tested on: HL-60
A498 = tested on: A498
CAKI-1 = tested on: CAKI-1
SF-295 = tested on: SF-295
SN12C = tested on: SN12C
NCI-H522 = tested on: NCI-H522
HCT-15 = tested on: HCT-15
OVCAR-5 = tested on: OVCAR-5
HOP-62 = tested on: HOP-62
SR = tested on: SR
SF-539 = tested on: SF-539
NCI-H23 = tested on: NCI-H23
UACC-62 = tested on: UACC-62
UACC-257 = tested on: UACC-257
Malme-3M = tested on: Malme-3M
NCI-H460 = tested on: NCI-H460
RPMI-8226 = tested on: RPMI-8226

SMILES	GI50 (LOX IMVI)	GI50 (IGROV-1)	GI50 (HT-29)	GI50 (HL-60)	GI50 (A498)	GI50 (CAKI-1)	GI50 (SF-295)	GI50 (SN12C)	GI50 (NCI-H522)	GI50 (HCT-15)	GI50 (OVCAR-5)	GI50 (HOP-62)	GI50 (SR)	GI50 (SF-539)	GI50 (NCI-H23)	GI50 (UACC-62)	GI50 (UACC-257)	GI50 (Malme-3M)	GI50 (NCI-H460)	GI50 (RPMI-8226)
CCCCCCCCC(C)C(=O)N1CCCC1C(=O)N1C(CC(=O)CC)CC(C)CC1C(=O)NC(C)C(=O)NC(C)(C)C(=O)NC(C)(C)C(=O)NC(C(=O)NC(C)C(=O)NC(C)(C)C(=O)NC(C)(C)C(=O)NC(C)CN(C)CCO)C(C)CC (stereo not given) (X46-P[X47]A[Aib][Aib]IA[Aib][Aib]-X48; configuration not given here)	0.355 µM (active)	0.221 µM (active)	0.0261 µM (active)	< 0.0106 µM (active)	2 µM (inactive)	0.818 µM (active)	< 0.01 µM (active)	0.115 µM (active)	< 0.01 µM (active)	0.406 µM	0.889 µM (active)	0.116 µM (active)	0.0294 µM (active)	0.211 µM (active)	< 0.01 µM (active)	1.89 µM (inactive)	< 0.01 µM (active)	1.26 µM (inactive)	0.0204 µM (active)	< 0.0181 µM (active)
C/C=C(/C)C(=O)OC1CC(C)[C@H]2CC(=O)C(C)=C2CC1C(C)(C)OC(C)=O (stereo not given in full)	17.9 µM (inactive)	53.8 µM (inactive)	35.5 µM (inactive)	21.4 µM (inactive)	20.2 µM (inactive)	37.1 µM (inactive)	24.7 µM (inactive)	42 µM (inactive)	19.5 µM (inactive)	19.7 µM	> 100 µM (inactive)	28.9 µM (inactive)	23 µM (inactive)	20.7 µM (inactive)	74.8 µM (inactive)	21.8 µM (inactive)	20.9 µM (inactive)	19.3 µM (inactive)	19.3 µM (inactive)	22.9 µM (inactive)
C=C1c2nc3ccccc3n2C=C(c2ccc(OC)cc2)N1c1ccccc1	7.36 µM (inactive)	5.85 µM (inactive)	9.68 µM (inactive)	1.59 µM (inactive)	31 µM (inactive)	37.8 µM (inactive)	3.44 µM (inactive)	24 µM (inactive)	2.21 µM (inactive)	3.1 µM	> 78.5 µM (inactive)	36.8 µM (inactive)	1.96 µM (inactive)	6.67 µM (inactive)	11.7 µM (inactive)	3.67 µM (inactive)	13.3 µM (inactive)	3.98 µM (inactive)	3.94 µM (inactive)	3.65 µM (inactive)
CCCCCCCCCCCCCCCCCCNc1ccn(C2OC(COP(=O)(O)OCC3OC(n4ccc(N)nc4=O)C(O)C3O)C(O)C2O)c(=O)n1 (stereo not given)	16.5 µM (inactive)	30.3 µM (inactive)	37.7 µM (inactive)	10.2 µM (inactive)	> 100 µM (inactive)	67.6 µM (inactive)	> 100 µM (inactive)	65 µM (inactive)	> 37.8 µM (inactive)	55.6 µM	98.6 µM (inactive)	29.6 µM (inactive)	> 37.6 µM (inactive)	> 100 µM (inactive)	27.5 µM (inactive)	> 93.3 µM (inactive)	> 100 µM (inactive)	> 50 µM (inactive)	14.3 µM (inactive)	> 100 µM (inactive)

— ChEMBL document CHEMBL1201862, “PubChem BioAssay data set” (2004)
